Series [1] concerns the target T1, α-glucosidase (Saccharomyces cerevisiae, UniProt P53341).
T1 construct: purchased Sigma, St. Louis, MO, USA G5003
Description: biochemical. The conditions noted are these: for inhibition at 200 µg/mL: read-out: α-Glucosidase Inhibitory Activity % Inhibition at 200 µg/mL. On the procedure:
A colorimetric α-glucosidase assay was carried out by the previously described procedure. Briefly, the sample solution was dissolved in DMSO after the solutions were diluted with a phosphate buffer (100 mM KH2PO4, pH 6.9) become DMSO (10%, v/v) concentration. The substrate, p-nitrophenyl α-D-glucoside (Sigma, St. Louis, USA, CAS No. N1377), (c 1.5 mM), was prepared by dissolving with phosphate buffer. The tested samples (50 uL) were combined with 100 μL of the α-glucosidase enzyme solution (0.35 U/mL, Sigma, St. Louis, MO, USA, CAS. No. G5003), then the mixture was pre-incubated for 10 min at 37 °C. The enzymatic reaction was started by applying substrate (100 μL, c 1.5 mM) into the mixture and incubated at 37 °C for 20 min. The reaction was subsequently terminated by the addition of Na2CO3 (1 mL, c 1 M). The absorption was immediately measured at 405 nm by determining the quantity of p-nitrophenol released from the substrate.

For series [2], the system named is NO production in RAW 264.7 cells. Description: nitric oxide (NO) production inhibitory activity in LPS-treated RAW 264.7 cells (Griess reaction). The following applies: for inhibition at 50 µg/mL: read-out: Anti-Inflammatory (NO Production Inhibitory Activity) % Inhibition at 50 µg/mL; for NO production inhibitory activity (in words): RAW 264.7 macrophage cells. The class given is cell-based. How it is done:
The NO inhibitory activity was performed using the same procedure as previously reported. RAW 264.7 (American Type Culture Collection, Manassas, VA, USA) were seeded at 4 × 10^4 cells/well in 96 well plates suspended in 100 μL DMEM supplemented with 10% FBS and incubated at 37 °C 5% CO2 overnight. Cells were incubated with 1 µg/mL LPS for 1 h and treated with various concentrations of sample compounds and vehicle control (DMSO) for 24 h. After 24 h, the NO production inhibitory was determined in the culture supernatant using the Griess reaction by adding 100 µL of Griess reagent in a 96 well plate for 10 min. The determination of nitric oxide was measured at 570 nm with Biochrom EZ Read 400 ELISA microplate reader (Biochrom Ltd., Cambridge, United Kingdom). Additionally, the data were presented as IC50 which was calculated with GraphPad Prism 6.0 software.
In general terms: The Griess reaction detects nitrite, a stable product of nitric oxide.

A short description of series [3]: cytotoxicity / cell viability MTT assay. In kind it is cell-based. The conditions noted are these: mouse, RAW 264.7 cells, RAW 264.7, 24 h. How it is done:
(§1) Cell viability studies were evaluated by the MTT (3-[4,5-dimethylthiazol-2-yl]-2,5-diphenyl tetrazolium bromide) assay. In brief, RAW 264.7 cells (5 × 10^4 cells/well) were cultured and incubated in 96-well plates for 24 h. The samples were prepared in DMSO at different concentrations ([…]). The cells were then treated with samples in DMEM medium (10% FBS, […] streptomycin, and 100 IU/mL penicillin at 37 °C in a 5% CO2) for 24 h. The medium was then removed and each well was filled with fresh DMEM containing 0.5 mg/mL MTT solution for 4 h at 37 °C in a 5% CO2. After that, the medium was removed, and the formazan precipitate was dissolved in DMSO [21]. The absorbance was measured at 550 nm on a microplate reader. All processes were performed in triplicate.
(In general: Tetrazolium assays rely on reduction of a dye to a coloured formazan, in cell work by metabolically active cells.)

The test system of series [4] is RAW 264.7 cells. Description: cytotoxicity / cell viability MTT assay. The class given is cell-based. On the procedure:
as §1

The mark [5] stands for this setting: Mus musculus, RAW264.7, LPS 1 µg/mL, 24 h.
Where [6] appears, read: read-out: α-Glucosidase Inhibitory Activity IC50.

Structures are written as SMILES. “Also recorded” adds a separate entry of the source. Like-named read-outs stand apart in the source and are kept apart here. Some results are limits rather than exact numbers.

T1 sequence (P53341 whole entry): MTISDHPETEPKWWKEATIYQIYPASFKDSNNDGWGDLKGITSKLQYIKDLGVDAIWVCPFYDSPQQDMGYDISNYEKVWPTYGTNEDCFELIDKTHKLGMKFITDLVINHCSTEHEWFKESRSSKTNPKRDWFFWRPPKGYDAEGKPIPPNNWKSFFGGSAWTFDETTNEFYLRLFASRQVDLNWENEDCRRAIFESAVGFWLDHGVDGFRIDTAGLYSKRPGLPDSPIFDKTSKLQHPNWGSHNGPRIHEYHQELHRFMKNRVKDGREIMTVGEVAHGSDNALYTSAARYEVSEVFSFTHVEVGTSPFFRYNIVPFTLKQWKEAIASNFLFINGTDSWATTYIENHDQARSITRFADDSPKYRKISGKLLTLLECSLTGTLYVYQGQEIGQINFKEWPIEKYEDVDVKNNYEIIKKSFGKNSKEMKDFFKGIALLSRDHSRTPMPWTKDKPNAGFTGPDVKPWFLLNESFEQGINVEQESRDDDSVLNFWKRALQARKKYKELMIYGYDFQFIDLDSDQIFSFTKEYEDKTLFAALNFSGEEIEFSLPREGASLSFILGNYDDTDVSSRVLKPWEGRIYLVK

The IC50 is the concentration that inhibits the measured activity by half. In general, viability refers to the share of living cells, or the viability signal relative to a control. A low value points to more harm to the cells. With `COC(=O)C[C@@]12OC(=O)C[C@@H](C)[C@@H]1Oc1cccc(O)c1C2=O` (relative stereo) [Compound 1, Daldiniaeschsone A], in series [1], the IC50 came to 160 ± 110 µM and the inhibition at 200 µg/mL is 98.7%. In series [2] (LPS 1 µg/mL, 24 h), the “Anti-Inflammatory (NO Production Inhibitory Activity) IC50” value is “inactive”. Moreover, in series [2] (setting [5]), the inhibition at 50 µg/mL was found to be 26.5%. The “NO production inhibitory activity (in words)” value in series [2] is “no NO production inhibitory activities”. For the same compound, the viability at 24 h, 50 µg/mL in series [3] was over 75%. Also, the “cytotoxicity against RAW 264.7 cells at 50 µg/mL (in words)” value in series [4] was “without toxicity; also recorded: no cytotoxicity”.

For `C[C@H]1O[C@H](O[C@H]2[C@H](O)[C@@H](O)[C@@H](O[C@H]3[C@H](O)[C@@H](O)C(O)O[C@@H]3CO)O[C@@H]2CO)[C@H](O)[C@@H](O)[C@@H]1N[C@H]1C=C(CO)[C@@H](O)[C@H](O)[C@H]1O` (some centres unmarked) [Acarbose, reference compound], the inhibition at 200 µg/mL in series [1] was determined as 95.6%.

With `COC(=O)C[C@@]12OC(=O)C[C@@H](C)[C@@H]1Oc1ccc(-c3ccc4c(c3O)C(=O)[C@]3(CC(=O)OC)OC(=O)C[C@@H](C)[C@@H]3O4)c(O)c1C2=O` [Compound 2, Daldiniaeschsone B], in series [1], half-maximal inhibition (IC50) was put at 230 µM and the inhibition at 200 µg/mL came out at 96.8%. Moreover, the “Anti-Inflammatory (NO Production Inhibitory Activity) IC50” value in series [2] (LPS 1 µg/mL, 24 h) was “inactive”. Besides, the inhibition at 50 µg/mL in series [2] (setting [5]) is 36.9%. In addition, the “NO production inhibitory activity (in words)” value in series [2] is listed as “no NO production inhibitory activities”. In series [4], the “cytotoxicity against RAW 264.7 cells at 50 µg/mL (in words)” value is given as “without toxicity; also recorded: no cytotoxicity”.

`O=C1CC[C@H](O)c2cccc(O)c21` [Compound 3, (+)-regiolone]: in series [1], the inhibition at 200 µg/mL stood at 97.8%. Further, the IC50 in series [1] (setting [6]) is 850 ± 1190 µM.

Take `O=C1C[C@@H](O)[C@@H](O)c2cccc(O)c21` [Compound 4, (+)-3,4-dihydro-3,4,8-trihydroxy-1(2H)-naphthalenone]: the inhibition at 200 µg/mL in series [1] turned out to be 97.8%. In addition, the IC50 in series [1] (setting [6]) turned out to be 550 ± 1330 µM.

For `C[C@H]1Cc2cccc(O)c2C(=O)O1` [Compound 5, (+)-mellein], the inhibition at 200 µg/mL in series [1] was 97.5%. Also, the half-maximal inhibitory concentration (IC50) in series [1] (setting [6]) was found to be 760 ± 90 µM.

For `COc1ccc2c(c1)c(CC(=O)O)c(C)n2C(=O)c1ccc(Cl)cc1` [Indomethacin, reference compound], the inhibition at 50 µg/mL in series [2] (setting [5]) stood at 71%. In addition, the IC50 in series [2] (Mus musculus, RAW264.7, LPS 1 µg/mL, 24 h, read-out: Anti-Inflammatory (NO Production Inhibitory Activity) IC50) was 19.6 ± 0.62 µM. The compound further displayed a viability at 24 h, 50 µg/mL in series [3] of 85 ± 2.92%.
